# Results: patent US8586579B2, “Anellated pyridine compounds” (Hoffmann-La Roche Inc., priority 2010, dated 2013)
# Where two headings read alike, the source gives them in different places.
# Experiments:
# [1] = target: human 5-HT2A receptor (Homo sapiens (Human), UniProt P28223); test: Radioligand binding assay, [3H]-ketanserin, human 5-HT2A receptor
# Description: (§1) HEK293 EBNA cells were transiently transfected with expression plasmids encoding for the human D2 or D3 or for the human 5-HT2A receptor, respectively. The cells were harvested 48 h post-transfection, washed three times with cold PBS and stored at −80° C. prior to use. The pellet was suspended in cold 50 mM Tris-HCl buffer comprising 10 mM EDTA (pH 7.4) and was homogenized with a Polytron (Kinematica AG, Basel, Switzerland) for 20-30 sec at 12.000 rpm. After centrifugation at 48.000×g for 30 min at 4° C., the pellet was resuspended in cold 10 mM Tris-HCl buffer comprising 0.1 mM EDTA (pH 7.4), homogenized, and centrifuged as above. This pellet was further resuspended in a smaller volume of ice cold 10 mM Tris-HCl buffer comprising 0.1 mM EDTA (pH 7.4) and homogenized with a Polytron for 20-30 sec at 12.000 rpm. The protein content of this homogenate was determined with the Bio-Rad (Bradford) Protein Assay (Biorad Laboratories GmbH, München, Germany) according to the instructions of the manufacturer using gamma globulin as the standard. This homogenate was stored at −80° C. in aliquots and thawed immediately prior to use.
# (§2) Aliquots of membrane preparations were thawed at RT, resuspended in assay buffer (D2, D3: 50 mM Tris-HCl, 120 mM NaCl, 5 mM MgCl2, 1 mM EDTA, 5 mM KCl, 1.5 mM CaCl2, pH=7.4; 5-HT2A: 50 mM Tris-HCl, 10 mM MgCl2, 1 mM EGTA, pH=7.4), homogenized with a Polytron for 20-30 sec at 12.000 rpm and adjusted to a final concentration of approximately 7.5 μg protein/well (D2, D3) and 15 μg protein/well (5-HT2A), respectively.
# (§3) The binding affinity (Ki) of the compounds was determined using radioligand binding. Membranes were incubated in a total volume of 200 μl with a fixed concentration of radioligand (final concentration approximately 0.7 nM [^3H]-spiperone for D2, 0.5 nM [^3H]-spiperone for D3, and 1.1 nM [^3H]-ketanserin for 5-HT2A) and ten concentrations of test compound in ranging between 10 μM-0.1 nM for 1 h at RT. […] The nonspecific binding was determined with equally composed reaction mixtures in the presence of 10 μM unlabelled spiperone. Per well 45 μl of Microscint 40 (Perkin Elmer, Schwerzenbach, Switzerland) was added, plates for sealed, shaken for 20 min and counted for 3 min on a Topcount Microplate Scintillation Counter (Can berra Packard SA, Zürich, Switzerland) with quenching correction.
# (§4) The CPM value for each duplicate of a concentration of competing compound was averaged (y1), then the % specific binding was calculated according to the equation (((y1−non-specific)/(total binding−non-specific))×100). Graphs were plotted with the % specific binding using XLfit, a curve fitting program that iteratively plots the data using Levenberg-Marquardt algorithm. The single site competition analysis equation used was y=A+((B−A)/(1+((x/C)D))), where y is the % specific binding, A is the minimum y, B is the maximum y, C is the IC50, x is the log 10 of the concentration of the competing compound and D is the slope of the curve (the Hill Coefficient). […] The affinity constant (K) was calculated using the Cheng-Prusoff equation Ki=(IC50/1+([L]/Kd), where [L] is the concentration of radioligand and Kd is the dissociation constant of the radioligand at the receptor as determined by the saturation isotherm.
# [2] = target: human D3 receptor (Homo sapiens (Human), UniProt P35462); test: Radioligand binding assay, [3H]-spiperone, human D3 receptor; details: membranes of HEK293 EBNA cells expressing human D3; 0.5 nM [3H]-spiperone
# Description: as §1, §2, §3, §4
# [3] = target: human D2 receptor (Homo sapiens (Human), UniProt P14416); test: Radioligand binding assay, [3H]-spiperone, human D2 receptor; details: membranes of HEK293 EBNA cells expressing human D2; 0.7 nM [3H]-spiperone
# Description: as §1, §2, §3
# as §4, with “algorithm.” for “algorithm. The single site competition analysis equation used was y=A+((B−A)/(1+((x/C)D))), where y is the % specific binding, A is the minimum y, B is the maximum y, C is the IC50, x is the log 10 of the concentration of the competing compound and D is the slope of the curve (the Hill Coefficient).”
# [4] = membranes of HEK293 EBNA cells expressing human 5-HT2A, 1.1 nM [3H]-ketanserin
# Sequence of human D2 receptor (P14416 whole entry): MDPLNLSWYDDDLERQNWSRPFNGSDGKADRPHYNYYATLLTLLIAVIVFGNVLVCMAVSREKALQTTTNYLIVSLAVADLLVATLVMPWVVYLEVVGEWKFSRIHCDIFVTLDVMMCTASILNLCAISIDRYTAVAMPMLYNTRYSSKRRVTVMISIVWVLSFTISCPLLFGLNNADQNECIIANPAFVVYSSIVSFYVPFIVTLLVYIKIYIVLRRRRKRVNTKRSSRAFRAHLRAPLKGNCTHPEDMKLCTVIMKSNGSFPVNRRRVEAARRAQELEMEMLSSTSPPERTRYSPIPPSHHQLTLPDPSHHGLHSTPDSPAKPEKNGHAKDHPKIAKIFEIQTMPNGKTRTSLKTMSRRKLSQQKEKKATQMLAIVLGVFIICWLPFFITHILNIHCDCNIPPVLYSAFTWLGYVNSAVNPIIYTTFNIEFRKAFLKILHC
# Sequence of human 5-HT2A receptor (P28223 whole entry): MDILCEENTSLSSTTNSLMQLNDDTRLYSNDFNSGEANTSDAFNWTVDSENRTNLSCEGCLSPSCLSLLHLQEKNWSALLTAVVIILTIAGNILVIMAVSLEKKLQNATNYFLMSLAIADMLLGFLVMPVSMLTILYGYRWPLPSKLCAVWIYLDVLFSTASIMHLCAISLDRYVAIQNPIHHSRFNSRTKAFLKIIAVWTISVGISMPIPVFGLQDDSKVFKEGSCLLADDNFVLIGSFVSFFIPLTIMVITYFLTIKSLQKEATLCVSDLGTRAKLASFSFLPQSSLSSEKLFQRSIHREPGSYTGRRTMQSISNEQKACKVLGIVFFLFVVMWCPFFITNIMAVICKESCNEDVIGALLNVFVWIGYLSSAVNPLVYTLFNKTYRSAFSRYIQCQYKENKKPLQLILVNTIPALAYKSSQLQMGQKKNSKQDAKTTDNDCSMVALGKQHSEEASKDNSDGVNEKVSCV
# Sequence of human D3 receptor (P35462 whole entry): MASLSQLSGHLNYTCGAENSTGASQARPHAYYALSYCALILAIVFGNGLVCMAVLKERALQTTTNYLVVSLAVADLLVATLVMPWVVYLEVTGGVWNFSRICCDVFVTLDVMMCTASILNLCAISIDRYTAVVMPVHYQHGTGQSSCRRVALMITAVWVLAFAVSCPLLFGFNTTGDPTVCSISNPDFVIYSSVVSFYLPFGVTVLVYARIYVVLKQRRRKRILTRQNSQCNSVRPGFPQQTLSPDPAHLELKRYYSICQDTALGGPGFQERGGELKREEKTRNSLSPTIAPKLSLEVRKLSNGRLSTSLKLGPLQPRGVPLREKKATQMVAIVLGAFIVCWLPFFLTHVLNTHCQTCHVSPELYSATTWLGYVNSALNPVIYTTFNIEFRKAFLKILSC
Structure (SMILES),"Ki [1, 4] [nM]",Ki [2] [nM],melting point [°C],Ki [3] [nM],Ki [1] [nM]
"CC(C)(C)Oc1ccc(C(=O)N[C@H]2CC[C@H](CCN3CCN(c4nccc5c4CCO5)CC3)CC2)cc1 [Example 136, trans-4-tert-Butoxy-N-(4-{2-[4-(2,3-dihydro-furo[3,2-c]pyridin-4-yl)-piperazin-1-yl]-ethyl}-cyclohexyl)-benzamide]",41.4,69.5,200,3160,–
"C[C@]1(O)CC[C@H](C(=O)N[C@H]2CC[C@H](CCN3CCN(c4nccc5c4CCO5)CC3)CC2)CC1 [Example 54, trans-4-Hydroxy-4-methyl-cyclohexanecarboxylic acid trans-(4-{2-[4-(2,3-dihydro-furo[3,2-c]pyridin-4-yl)-piperazin-1-yl]-ethyl}-cyclohexyl)-amide]",12.6,51.4,171,506,–
"O=C(N[C@H]1CC[C@H](CCN2CCN(c3nccc4c3CCO4)CC2)CC1)C(O)C(F)(F)F (mixture of isomers) [Example 112, trans-(RS)—N-(4-{2-[4-(2,3-Dihydro-furo[3,2-c]pyridin-4-yl)-piperazin-1-yl]-ethyl}-cyclohexyl)-3,3,3-trifluoro-2-hydroxy-propionamide]",–,37.9,204,–,–
"O=C(N[C@H]1CC[C@H](CCN2CCN(c3nccc4c3CCO4)CC2)CC1)C1CCCO1 (mixture of isomers) [Example 43, trans-N-(4-{2-[4-(2,3-Dihydrofuro[3,2-c]pyridin-4-yl)-piperazin-1-yl]-ethyl}-cyclohexyl)-rac-tetrahydrofuran-2-carboxamide]",6.3,–,176.5,–,–
"O=C(CC1COCCO1)N[C@H]1CC[C@H](CCN2CCN(c3nccc4c3CCO4)CC2)CC1 (mixture of isomers) [Example 37, trans-N-(4-{2-[4-(2,3-Dihydrofuro[3,2-c]pyridin-4-yl)-piperazin-1-yl]-ethyl}-cyclohexyl)-2-(rac-1,4-dioxan-2-yl)-acetamide]",9.7,–,186,1470,–
"O=C(N[C@H]1CC[C@H](CCN2CCN(c3nccc4c3CCO4)CC2)CC1)c1ccc(Cl)cc1Cl [Example 132, trans-2,4-Dichloro-N-(4-{2-[4-(2,3-dihydro-furo[3,2-c]pyridin-4-yl)-piperazin-1-yl]-ethyl}-cyclohexyl)-benzamide]",21.7,26.7,203.5,–,–
"O=C(C[C@H]1COCCO1)N[C@H]1CC[C@H](CCN2CCN(c3nccc4c3CCO4)CC2)CC1 [Example 67, trans-N-(4-{2-[4-(2,3-Dihydro-furo[3,2-c]pyridin-4-yl)-piperazin-1-yl]-ethyl}-cyclohexyl)-2-(S)-[1,4]dioxan-2-yl-acetamide]",8.15,–,192,1460,–
"O=C(CC1CCOCC1)N[C@H]1CC[C@H](CCN2CCN(c3nccc4occc34)CC2)CC1 [Example 10, N-{trans-4-[2-(4-Furo[3,2-c]pyridin-4-yl-piperazin-1-yl)-ethyl]-cyclohexyl}-2-(tetrahydro-pyran-4-yl)-acetamide]",6.1,30.3,–,683,–
"CN(C)S(=O)(=O)N[C@H]1CC[C@H](CCN2CCN(c3nccc4occc34)CC2)CC1 [Example 17, N′-(trans-4{[4-(furo[3,2-c]pyridin-4-yl)-piperazin-1-yl]-ethyl}cyclohexyl)-N,N-dimethylsulfamide]",5.3,33,–,539,–
"O=C(CO)N[C@H]1CC[C@H](CCN2CCN(c3nccc4sccc34)CC2)CC1 [Example 27, 2-Hydroxy-N-{trans-4-[2-(4-thieno[3,2-c]pyridin-4-yl-piperazin-1-yl)-ethyl]-cyclohexyl}-acetamide]",1.4,1.4,–,218,–
"CS(=O)(=O)N[C@H]1CC[C@H](CCN2CCN(c3nccc4occc34)CC2)CC1 [Example 14, N-{trans-4-[2-(4-Furo[3,2-c]pyridin-4-yl-piperazin-1-yl)-ethyl}-cyclohexyl]-methanesulfonamide]",6.8,34.1,–,866,–
"O=C(C[C@@H]1COCCO1)N[C@H]1CC[C@H](CCN2CCN(c3nccc4c3CCO4)CC2)CC1 [Example 61, trans-N-(4-{2-[4-(2,3-Dihydro-furo[3,2-c]pyridin-4-yl)-piperazin-1-yl]-ethyl}-cyclohexyl)-2-(R)-[1,4]dioxan-2-yl-acetamide]",11.8,–,193.5,1120,–
"O=C(N[C@H]1CC[C@H](CCN2CCN(c3nccc4occc34)CC2)CC1)C1CCOCC1 [Example 11, Tetrahydro-pyran-4-carboxylic acid {trans-4-[2-(4-furo[3,2-c]pyridin-4-yl-piperazin-1-yl)-ethyl]-cyclohexyl}-amide]",2.9,55.7,–,515,–
"CCC(=O)N[C@H]1CC[C@H](CCN2CCN(c3nccc4occc34)CC2)CC1 [Example 4, N-{trans-4-[2-(4-Furo[3,2-c]pyridin-4-yl-piperazin-1-yl)-ethyl]-cyclohexyl}-propionamide]",–,11.8,–,780,6.5
"O=C(N[C@H]1CC[C@H](CCN2CCN(c3nccc4c3CCO4)CC2)CC1)c1ccnc2ccccc12 [Example 62, Quinoline-4-carboxylic acid trans-(4-{2-[4-(2,3-dihydro-furo[3,2-c]pyridin-4-yl)-piperazin-1-yl]-ethyl}-cyclohexyl)-amide]",3.62,10.7,210,–,–
"CCC(=O)N[C@H]1CC[C@H](CCN2CCN(c3nccc4sccc34)CC2)CC1 [Example 18, N-{trans-4-[2-(4-Thieno[3,2-c]pyridin-4-yl-piperazin-1-yl)-ethyl]-cyclohexyl}-propionamide]",2.6,1.6,–,163,–
"CC(=O)N[C@H]1CC[C@H](CCN2CCN(c3nccc4sccc34)CC2)CC1 [Example 15, N-{trans-4-[2-(4-Thieno[3,2-c]pyridin-4-yl-piperazin-1-yl)-ethyl]-cyclohexyl}-acetamide]",–,1.9,–,119,3.3
"O=C(N[C@H]1CC[C@H](CCN2CCN(c3nccc4c3CCO4)CC2)CC1)C1CCCOC1 (mixture of isomers) [Example 53, rac-Tetrahydro-pyran-3-carboxylic acid trans-(4-{2-[4-(2,3-dihydro-furo[3,2-c]pyridin-4-yl)-piperazin-1-yl]-ethyl}-cyclohexyl)-amide]",–,28.8,216,–,–
"CO[C@@H]1CC[C@@H](CC(=O)N[C@H]2CC[C@H](CCN3CCN(c4nccc5sccc45)CC3)CC2)C1 (racemic) [Example 21, 2-(trans-3-Methoxy-cyclopentyl)-N-{trans-4-[2-(4-thieno[3,2-c]pyridin-4-yl-piperazin-1-yl)-ethyl]-cyclohexyl}-acetamide]",3.7,3.6,–,271,–
"O=C(N[C@H]1CC[C@H](CCN2CCN(c3nccc4occc34)CC2)CC1)C1CC1 [Example 13, Cyclopropanecarboxylic acid {trans-4-[2-(4-furo[3,2-c]pyridin-4-yl-piperazin-1-yl)-ethyl]-cyclohexyl}-amide]",4.4,21.8,–,261,–
